Reference: patent publication US11566007B2, “Ras inhibitors” (Revolution Medicines, Inc., priority 2019, dated 2023)

Assays:
KRAS WT = KRAS WT (Homo sapiens (Human), UniProt P01116+P62937); test: Ras-Raf (BRAF RBD) disruption / FRET / MOA assay, KRAS WT; assay type: biochemical; conditions: read-out: IC50* KRAS WT FRET data
In short: (§1)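 Ras:RAF disruption was scored as a fall in TR-FRET ratio relative to DMSO. Compound ranged in 3-fold steps over 10 points from 30 μM final; incubation ran 3 h at 25° C, detection antibodies a further 1.5 h. Reported as IC50.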

K-Ras G13C = K-Ras G13C (Homo sapiens (Human), UniProt P01116+P62937, G13C); test: Ras-Raf (BRAF RBD) disruption / FRET / MOA assay, KRAS G13C; assay type: biochemical; conditions: KRAS G13C; Ras-Raf disruption/FRET/MOA assay; read-out: IC50* KRAS G13C FRET data
K-Ras G13C, sequence (P01116-2 other isoform, or with tags, fused parts or gaps G13C): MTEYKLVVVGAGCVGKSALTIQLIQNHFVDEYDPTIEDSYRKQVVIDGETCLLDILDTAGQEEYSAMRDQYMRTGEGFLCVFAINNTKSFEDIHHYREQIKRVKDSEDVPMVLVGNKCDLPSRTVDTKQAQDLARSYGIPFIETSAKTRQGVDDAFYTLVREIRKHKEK
K-Ras G13C, sequence (P62937 whole entry): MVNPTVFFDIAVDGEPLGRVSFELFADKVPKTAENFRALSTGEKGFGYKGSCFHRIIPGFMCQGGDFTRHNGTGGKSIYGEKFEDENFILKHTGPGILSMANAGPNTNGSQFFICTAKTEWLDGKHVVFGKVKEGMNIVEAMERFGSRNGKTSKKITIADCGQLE
In short: as §1

KRAS Q61H = KRAS Q61H (Homo sapiens (Human), UniProt P01116+P62937, Q61H); test: Ras-Raf (BRAF RBD) disruption / FRET / MOA assay, KRAS Q61H; assay type: biochemical; conditions: Ras-Raf disruption/FRET/MOA assay; class symbols; read-out: KRAS Q61H FRET data IC50
KRAS Q61H, sequence (P01116-2 other isoform, or with tags, fused parts or gaps Q61H): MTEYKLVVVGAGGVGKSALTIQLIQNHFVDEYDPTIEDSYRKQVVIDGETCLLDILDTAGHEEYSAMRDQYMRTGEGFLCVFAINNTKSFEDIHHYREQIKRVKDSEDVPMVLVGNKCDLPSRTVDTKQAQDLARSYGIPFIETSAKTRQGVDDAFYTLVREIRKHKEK
KRAS Q61H, sequence (P62937 whole entry, canonical isoform): as the sequence (P62937 whole entry) above
Description: (§2) The purpose of this biochemical assay is to measure the ability of test compounds to facilitate ternary complex formation between a nucleotide-loaded Ras isoform and cyclophilin A; the resulting ternary complex disrupts binding to a BRAF^RBD construct, inhibiting Ras signaling through a RAF effector.
(§3) […]. Compound is present in plate wells as a 10-point 3-fold dilution series starting at a final concentration of 30 μM. After incubation at 25° C. for 3 hours, a mixture of Anti-His Eu-W1024 and anti-GST allophycocyanin is then added to assay sample wells at final concentrations of 10 nM and 50 nM, respectively, and the reaction incubated for an additional 1.5 hours. […] Compounds that facilitate disruption of a Ras:RAF complex are identified as those eliciting a decrease in the TR-FRET ratio relative to DMSO control wells.
(§4) Note—The following protocol describes a procedure for monitoring disruption of K-Ras G12C (GMP-PNP) binding to BRAF^RBD by a compound of the invention. This protocol may also be executed substituting other Ras proteins or nucleotides.
(§5) The purpose of this biochemical assay was to measure the ability of test compounds to facilitate ternary complex formation between a nucleotide-loaded K-Ras isoform and Cyclophilin A; the resulting ternary complex disrupts binding to a BRAF^RBD construct, inhibiting K-Ras signaling through a RAF effector. Data is reported as IC50 values.
(§6) […]. Compound was present in plate wells as a 10-point 3-fold dilution series starting at a final concentration of 30 μM. After incubation at 25° C. for 3 hours, a mixture of Anti-His Eu-W1024 and anti-GST allophycocyanin was then added to assay sample wells at final concentrations of 10 nM and 50 nM, respectively, and the reaction incubated for an additional 1.5 hours. […] Compounds that facilitate disruption of a K-Ras:RAF complex were identified as those eliciting a decrease in the TR-FRET ratio relative to DMSO control wells.

KRAS G12V = KRAS G12V (Homo sapiens (Human), UniProt P01116+P62937, G12V); test: Ras-Raf (BRAF RBD) disruption / FRET / MOA assay, KRAS G12V; assay type: biochemical; conditions: read-out: IC50* KRAS G12V FRET data
KRAS G12V, sequence (P01116-2 other isoform, or with tags, fused parts or gaps G12V): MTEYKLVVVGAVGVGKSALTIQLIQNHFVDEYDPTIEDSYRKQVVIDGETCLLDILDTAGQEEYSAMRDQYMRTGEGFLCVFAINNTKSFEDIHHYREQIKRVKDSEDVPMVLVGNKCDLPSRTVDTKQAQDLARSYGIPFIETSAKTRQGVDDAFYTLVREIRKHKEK
KRAS G12V, sequence (P62937 whole entry): as the sequence (P62937 whole entry) above
In short: as §1

KRAS G13D = KRAS G13D (Homo sapiens (Human), UniProt P01116+P62937, G13D); test: Ras-Raf (BRAF RBD) disruption / FRET / MOA assay, KRAS G13D; assay type: biochemical; conditions: read-out: IC50* KRAS G13D FRET data
KRAS G13D, sequence (P01116-2 other isoform, or with tags, fused parts or gaps G13D): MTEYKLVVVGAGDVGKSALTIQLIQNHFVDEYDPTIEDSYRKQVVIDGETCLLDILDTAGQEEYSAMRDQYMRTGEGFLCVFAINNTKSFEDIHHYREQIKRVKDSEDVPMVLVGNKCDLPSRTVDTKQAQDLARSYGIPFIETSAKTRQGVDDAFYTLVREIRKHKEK
KRAS G13D, sequence (P62937 whole entry): as the sequence (P62937 whole entry) above
In short: as §1

NRAS Q61K = NRAS Q61K (Homo sapiens (Human), UniProt P01111+P62937, Q61K); test: Ras-Raf (BRAF RBD) disruption / FRET / MOA assay, NRAS Q61K; assay type: biochemical; conditions: NRAS Q61K; Ras-Raf disruption/FRET/MOA assay; read-out: IC50* NRAS Q61K FRET data
NRAS Q61K, sequence (P01111 whole entry Q61K): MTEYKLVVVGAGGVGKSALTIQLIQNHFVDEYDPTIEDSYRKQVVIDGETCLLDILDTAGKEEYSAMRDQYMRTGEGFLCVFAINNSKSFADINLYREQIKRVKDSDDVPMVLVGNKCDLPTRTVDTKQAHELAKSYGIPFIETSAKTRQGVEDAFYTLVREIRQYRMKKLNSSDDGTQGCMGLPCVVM
NRAS Q61K, sequence (P62937 whole entry): as the sequence (P62937 whole entry) above
Description: as §2, §3, §4, §5, §6

NRAS Q61R = NRAS Q61R (Homo sapiens (Human), UniProt P01111+P62937, Q61R); test: Ras-Raf (BRAF RBD) disruption / FRET / MOA assay, NRAS Q61R; assay type: biochemical; conditions: NRAS Q61R; Ras-Raf disruption/FRET/MOA assay; read-out: IC50* NRAS Q61R FRET data
NRAS Q61R, sequence (P01111 whole entry Q61R): as the sequence (P01111 whole entry Q61K) above, with K61R counted along it
NRAS Q61R, sequence (P62937 whole entry): as the sequence (P62937 whole entry) above
Description: as §2, §3, §4, §5, §6

KRAS G12S = KRAS G12S (Homo sapiens (Human), UniProt P01116+P62937, G12S); test: Ras-Raf (BRAF RBD) disruption / FRET / MOA assay, KRAS G12S; assay type: biochemical; conditions: Ras-Raf disruption/FRET/MOA assay; class symbols; read-out: KRAS G12S FRET data IC50
KRAS G12S, sequence (P01116-2 other isoform, or with tags, fused parts or gaps G12S): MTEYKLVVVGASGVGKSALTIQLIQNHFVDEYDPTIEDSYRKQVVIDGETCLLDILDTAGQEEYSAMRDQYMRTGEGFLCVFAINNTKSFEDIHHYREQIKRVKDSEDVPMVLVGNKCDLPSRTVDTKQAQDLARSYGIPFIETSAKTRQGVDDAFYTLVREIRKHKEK
KRAS G12S, sequence (P62937 whole entry): as the sequence (P62937 whole entry) above
In short: as §1

K-Ras G12C = K-Ras G12C (Homo sapiens (Human), UniProt P01116+P62937, G12C); test: Ras-Raf (BRAF RBD) disruption / FRET / MOA assay, KRAS G12C; assay type: biochemical; conditions: KRAS G12C; Ras-Raf disruption/FRET/MOA assay; read-out: IC50* KRAS G12C FRET data
K-Ras G12C, sequence (P01116-2 other isoform, or with tags, fused parts or gaps G12C): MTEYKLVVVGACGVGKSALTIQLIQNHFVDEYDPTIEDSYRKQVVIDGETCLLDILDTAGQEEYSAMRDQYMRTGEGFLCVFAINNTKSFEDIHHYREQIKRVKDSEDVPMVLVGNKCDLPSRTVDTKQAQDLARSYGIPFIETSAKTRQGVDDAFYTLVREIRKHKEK
K-Ras G12C, sequence (P62937 whole entry): as the sequence (P62937 whole entry) above
In short: as §1

[1] = test system: NCI-H358 cells (K-Ras G12C); test: Potency assay: pERK in NCI-H358 cells; assay type: cell-based, human; conditions: Homo sapiens, NCI-H358; H358 KRAS G12C; read-out: pERK EC50
In short: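 4 h cpd, 37 °C; 10-pt 3-fold series, 10 mM DMSO top stock, duplicates. Readout pERK: AlphaLISA SureFire Ultra or In-Cell Western (IR-800CW secondary, DRAQ5 DNA stain). IC50, 4-PL fit vs log conc.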

NRAS G12C = NRAS G12C (Homo sapiens (Human), UniProt P01111+P62937, G12C); test: Ras-Raf (BRAF RBD) disruption / FRET / MOA assay, NRAS G12C; assay type: biochemical; conditions: read-out: IC50* NRAS G12C FRET data
NRAS G12C, sequence (P01111 whole entry G12C): as the sequence (P01111 whole entry Q61K) above, with G12C, K61Q counted along it
NRAS G12C, sequence (P62937 whole entry): as the sequence (P62937 whole entry) above
In short: as §1

NRAS WT = NRAS WT (Homo sapiens (Human), UniProt P01111+P62937); test: Ras-Raf (BRAF RBD) disruption / FRET / MOA assay, NRAS WT; assay type: biochemical; conditions: read-out: IC50* NRAS WT FRET data
NRAS WT, sequence (P01111 whole entry): as the sequence (P01111 whole entry Q61K) above, with K61Q counted along it
NRAS WT, sequence (P62937 whole entry): as the sequence (P62937 whole entry) above
Description: as §2, §3, §4, §5, §6

KRAS G12D = KRAS G12D (Homo sapiens (Human), UniProt P01116+P62937, G12D); test: Ras-Raf (BRAF RBD) disruption / FRET / MOA assay, KRAS G12D; assay type: biochemical; conditions: Ras-Raf disruption/FRET/MOA assay; class symbols; read-out: KRAS G12D FRET data IC50
KRAS G12D, sequence (P01116-2 other isoform, or with tags, fused parts or gaps G12D): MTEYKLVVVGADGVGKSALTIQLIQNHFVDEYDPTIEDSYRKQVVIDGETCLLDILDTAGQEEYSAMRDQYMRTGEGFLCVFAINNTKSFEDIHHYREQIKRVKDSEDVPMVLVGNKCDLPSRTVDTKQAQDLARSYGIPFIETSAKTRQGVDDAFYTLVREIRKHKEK
KRAS G12D, sequence (P62937 whole entry): as the sequence (P62937 whole entry) above
In short: as §1

KRAS WT, sequence (P01116-2 other isoform, or with tags, fused parts or gaps): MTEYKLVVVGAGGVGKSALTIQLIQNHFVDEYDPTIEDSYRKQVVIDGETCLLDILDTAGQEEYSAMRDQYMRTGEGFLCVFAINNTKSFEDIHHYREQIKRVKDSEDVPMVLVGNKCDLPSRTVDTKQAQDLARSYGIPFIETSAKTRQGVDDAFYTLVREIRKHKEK
KRAS WT, sequence (P62937 whole entry): as the sequence (P62937 whole entry) above

Row | SMILES | IC50 (KRAS WT) [nM] | IC50 (K-Ras G13C) [nM] | IC50 (KRAS Q61H) [nM] | IC50 (KRAS G12V) [nM] | IC50 (KRAS G13D) [µM] | IC50 (NRAS Q61K) [nM] | IC50 (NRAS Q61R) [nM] | IC50 (KRAS G12S) [nM] | IC50 (K-Ras G12C) [nM] | EC50 [1] [µM] | IC50 (NRAS G12C) [nM] | IC50 (NRAS WT) [nM] | IC50 (KRAS G12D) [µM]
1 | CO[C@@H](C)c1ncccc1-c1c2c3cc(ccc3n1CC(F)(F)F)-c1cc(cc(C(F)F)c1)C[C@H](NC(=O)[C@H](C(C)C)N(C)C(=O)[C@H]1CCN(C(=O)C#CC(C)(C)N3CCC3)C1)C(=O)N1CCC[C@H](N1)C(=O)OCC(C)(C)C2 (atropisomer, axis not shown) [Example A370] | 1000 to 10000 | 100 to 1000 | 1000 to 10000 | 1000 to 10000 | 1 to 10 | 1000 to 10000 | 1000 to 10000 | 1000 to 10000 | 10 to 100 | < 5 | 10 to 100 | 1000 to 10000 | 1 to 10
2 | C=CC(=O)N1CC[C@H](C(=O)N(C)[C@H](C(=O)N[C@H]2C[C@H]3CN(CCO3)c3ccc4c(c3)c(c(-c3cccnc3[C@H](C)OC)n4CC)CC(C)(C)COC(=O)[C@@H]3CCCN(N3)C2=O)C(C)C)C1 (atropisomer, axis not shown) [Example A378] | 1000 to 10000 | 1000 to 10000 | > 10000 | 1000 to 10000 | > 10 | > 10000 | > 10000 | 1000 to 10000 | 100 to 1000 | < 5 | 100 to 1000 | 1000 to 10000 | > 10
3 | CCn1c(-c2cccnc2[C@H](C)OC)c2c3cc(ccc31)-c1cccc(c1)C[C@H](NC(=O)[C@H](C1CCCC1)N(C)C(=O)[C@@H]1CN(C(=O)C#CC(C)(C)N(C)C)C[C@@H]1C)C(=O)N1CCC[C@H](N1)C(=O)OCC(C)(C)C2 (atropisomer, axis not shown) [Example A391] | 1000 to 10000 | 1000 to 10000 | 1000 to 10000 | 1000 to 10000 | 1 to 10 | 1000 to 10000 | 1000 to 10000 | 1000 to 10000 | < 10 | < 5 | < 10 | 1000 to 10000 | > 10
4 | C=CC(=O)N1CC[C@H](C(=O)N(C)[C@H](C(=O)N[C@H]2CC3=CCCN(C3)c3ccc4c(c3)c(c(-c3cccnc3[C@H](C)OC)n4CC)CC(C)(C)COC(=O)[C@@H]3CCCN(N3)C2=O)C(C)C)C1 (atropisomer, axis not shown) [Example A486] | > 10000 | 1000 to 10000 | > 10000 | > 10000 | > 10 | > 10000 | > 10000 | > 10000 | 100 to 1000 | < 5 | 100 to 1000 | > 10000 | > 10
5 | CO[C@@H](C)c1ncc(N2CCN(C)CC2)cc1-c1c2c3cc(ccc3n1CC(F)(F)F)-c1cccc(c1)C[C@H](NC(=O)[C@H](C(C)C)N(C)C(=O)C1(F)CCN(C(=O)C#CC(C)(C)N(C)C)CC1)C(=O)N1CCC[C@H](N1)C(=O)OCC(C)(C)C2 (atropisomer, axis not shown) [Example A542, 1-(4-(dimethylamino)-4-methylpent-2-ynoyl)-4-fluoro-N-((2S)-1-(((6^3S,4S)-1^2-(2-((S)-1-methoxyethyl)-5-(4-methylpiperazin-1-yl)pyridin-3-yl)-10,10-dimethyl-5,7-dioxo-1^1-(2,2,2-trifluoroethyl)-6^1,6^2,6^3,6^4,6^5,6^6-hexahydro-1^1H-8-oxa-1(5,3)-indola-6(1,3)-pyridazina-2(1,3)-benzenacycloundecaphane-4-yl)amino)-3-methyl-1-oxobutan-2-yl)-N-methylpiperidine-4-carboxamide] | 10 to 100 | < 10 | 10 to 100 | 10 to 100 | 0.01 to 0.1 | 10 to 100 | 10 to 100 | 10 to 100 | < 10 | < 5 | < 10 | 10 to 100 | 0.1 to 1
6 | CO[C@@H](C)c1ncccc1-c1c2c3cc(ccc3n1CC(F)(F)F)-c1csc(n1)C[C@H](NC(=O)[C@H](C(C)C)N(C)C(=O)N1C[C@@H]3OCCN(C(=O)/C=C/CF)[C@@H]3C1)C(=O)N1CCC[C@H](N1)C(=O)OCC(C)(C)C2 (atropisomer, axis not shown) [Example A571] | 100 to 1000 | 10 to 100 | 100 to 1000 | 100 to 1000 | 1 to 10 | 100 to 1000 | 100 to 1000 | 100 to 1000 | 100 to 1000 | < 5 | 100 to 1000 | 100 to 1000 | 1 to 10
7 | CO[C@@H](C)c1ncccc1-c1c2c3cc(ccc3n1CC(F)(F)F)-c1csc(n1)C[C@H](NC(=O)[C@H](C(C)C)N(C)C(=O)N1C[C@@H]3OCCN(C(=O)/C=C/C(F)F)[C@@H]3C1)C(=O)N1CCC[C@H](N1)C(=O)OCC(C)(C)C2 (atropisomer, axis not shown) [Example A572] | 100 to 1000 | 10 to 100 | 100 to 1000 | 100 to 1000 | 1 to 10 | 100 to 1000 | 100 to 1000 | 100 to 1000 | 10 to 100 | < 5 | 10 to 100 | 100 to 1000 | 1 to 10
